# Values quoted from earlier work in the CATMoS acute toxicity set (Mansouri et al. 2021).
# Where “and” joins values, the source holds several entries; their conditions need not be identical. Identical values can stand only once.
# Experiment: rat acute oral toxicity
# Conditions: in vivo
row,Structure (SMILES),LD50
1,ClC1=C(Cl)[C@]2(Cl)[C@@H]3[C@@H](Cl)[C@H](Cl)[C@@H](Cl)[C@@H]3[C@@]1(Cl)C2(Cl)Cl (racemic),500 mg/kg
2,CCSC(=O)NC1CCCCC1,2300 mg/kg
3,CCCCCOC(CBr)c1ccc(C2CCCC2)cc1 (stereo unspecified),250 mg/kg
4,CC(C)(C)N(CCO)CCO,2720 mg/kg
5,CNC(C)Cc1ccccc1OC (stereo unspecified),630 mg/kg
6,COc1cccc(O)c1,597 mg/kg
7,COc1ccc(OC)c2[nH]c(C(F)(F)F)nc12,60 mg/kg
8,CCOP(=S)(OCC)SCCSCC(=O)NC,18 mg/kg
9,CCc1c(C)[nH]c2c1C(=O)C1CN(C)CCC1C2 (stereo unspecified),220 mg/kg
10,CC(C)(C)N(Cl)Cl,780 mg/kg
11,CCOC(C1=NCC(C)(CC)CN1)c1cccc(F)c1 (stereo unspecified),165 mg/kg
12,C=C(C)C1CC=C(C)C(=O)C1 (racemic),1640 mg/kg
13,Oc1ccc(Cl)c(O)c1,369 mg/kg
14,Cc1nc(C)c(C(=O)Nc2ccccc2)s1,3930 mg/kg
15,CC(O)C(c1ccccc1)N1CCN(CCOc2ccccc2)CC1 (stereo unspecified),250 mg/kg
16,C[N+](C)(N)CCCl,3400 mg/kg
17,COc1cc(C(F)(F)F)ccn1,1750 mg/kg
18,COc1ccc(-c2oc3ccc(C(=O)O)cc3c(=O)c2OC(C)C)cc1,1480 mg/kg
19,COC(=O)COc1ccc2ccccc2c1,2800 mg/kg
20,C=C(Cl)C(Cl)=C(Cl)Cl,421 mg/kg
21,COc1ccc(CCNC[C@H](O)c2ccc(O)cc2)cc1OC,9370 mg/kg
22,CNCc1cccc2ccccc12,50 mg/kg
23,CCN(CC)CCOc1ccc(C2=C(c3ccccc3)CCc3cc(OC)ccc32)cc1,547 mg/kg
24,FC(F)(F)c1nc2c(C(F)(F)F)cc(Cl)cc2[nH]1,1.66 mg/kg
25,CCNC(=O)C(C)OC(=O)Nc1ccccc1 (stereo unspecified),11000 mg/kg
26,Cc1cc(C(=O)Nc2ccccc2)c(C)o1,64 mg/kg

row,Structure (SMILES),LD50
1,CCCCC,400 mg/kg
2,CC(C)=C[C@H]1[C@@H](C(=O)OCc2coc(Cc3ccccc3)c2)C1(C)C,63 mg/kg
3,CC1(C)CN(c2ccccc2)NC1=O,30 mg/kg
4,CCCCCCCCCCCCCCCCCC1=NCCN1,3170 mg/kg and 4600 mg/kg and 1970 mg/kg
5,CCSP(=O)(OC)SCC,158 mg/kg
6,CC(=O)NO,4800 mg/kg
7,COc1cc(OC)nc(NC(=O)NS(=O)(=O)c2cc(NC=O)ccc2C(=O)N(C)C)n1,3880 mg/kg
8,CSc1ccc(OP(C)(C)=S)cc1C,175 mg/kg
9,Nc1ccc(F)c(F)c1,340 mg/kg
10,Nc1ccc(C(F)(F)F)cc1NC(=O)c1cccnc1,850 mg/kg
11,CC(C)=CCCC(C)CCO (stereo unspecified),3450 mg/kg
12,CC(=Cc1ccccc1)CC(=O)N(CCO)CCO,1500 mg/kg
13,NC1=NCC(CN2CCN(c3ccccc3)CC2)O1 (stereo unspecified),575 mg/kg
14,CC(=O)Cl,910 mg/kg
15,Cc1ccc(SP(=S)(CCl)OC(C)C)cc1 (stereo unspecified),204 mg/kg
16,COP(=O)(CCC(=O)NCO)OC,13000 mg/kg
17,CCN(CC)CCN(CCN(CC)CC)n1cc(-c2ccccc2)c2ccccc21,800 mg/kg
18,C=CC(=O)OCCOC(=O)C=C,300 mg/kg
19,CCOC(=O)CN1CCN(C(=O)C=Cc2cc(OC)c(OC)c(OC)c2)CC1,4190 mg/kg
20,CCCN(C)C,500 mg/kg
21,O=NN1CCc2ccccc21,320 mg/kg
22,C=C1C(=CC=C2CCCC3(C)C2CCC3C(C)CCCC(C)C)CC(O)CC1O (stereo unspecified),340 mg/kg
23,CCCCNc1ccccc1,1620 mg/kg
24,c1cc2c(c(NC3=NCCN3)c1)CCCC2,190 mg/kg
25,COC(=O)c1ccc(C(=O)OC)cc1,4390 mg/kg
26,CCCC(=O)O[C@]1(C(=O)COC(=O)CC)CC[C@H]2[C@@H]3CCC4=CC(=O)CC[C@]4(C)[C@H]3[C@@H](O)C[C@@]21C,5120 mg/kg

row,Structure (SMILES),LD50
1,CNC(=O)Oc1cc(C)c(C)cc1Cl,30 mg/kg
2,C=C(C)C1CCC(C)(OP(=S)(OC)OC)CC1 (stereo unspecified),500 mg/kg
3,COc1ccccc1N1CCN(CCCOc2ccc(N)cc2)CC1,416 mg/kg
4,CC=CCO,793 mg/kg
5,FC(F)(F)c1cccc(Nc2ccccc2-c2nn[nH]n2)c1,455 mg/kg
6,CN(C)CC(=O)N/N=C/c1c(Cl)nc2sccn12,1500 mg/kg
7,C=Cc1ccc(Cl)cc1,5200 mg/kg
8,C=C(C)C(=O)OCCN(CC)CC,4700 mg/kg
9,OCc1cccc(Oc2ccccc2)c1,1500 mg/kg
10,CCC(=O)c1ccc2c(c1)N(CCCN(C)C)c1ccccc1S2,500 mg/kg
11,COc1ccc2c3c1O[C@H]1[C@@H](O)C=C[C@H]4[C@@H](C2)N(C)CC[C@@]341,85 mg/kg
12,NC(=O)c1ccc2nc(C(F)(F)F)[nH]c2c1,31.6 mg/kg
13,NCCNCCNCCN,2500 mg/kg and 2280 mg/kg
14,CN(C)c1ccc(O)cc1,689 mg/kg
15,C(=Nc1ccccc1)Nc1ccccc1,1900 mg/kg
16,CC(C)Cc1ccc(CC(=O)O)cc1,2300 mg/kg
17,CN(C)CCN(Cc1cccs1)c1ccccn1,200 mg/kg
18,Oc1cc(Cl)ccc1Oc1ccc(Cl)cc1Cl,3700 mg/kg
19,COB(OC)OC,6140 mg/kg
20,CCOC(=O)C(SP(=O)(OC)OC)c1ccccc1 (stereo unspecified),63 mg/kg
21,CC(C)N(CCC(C(N)=O)(c1ccccc1)c1ccccn1)C(C)C (stereo unspecified),880 mg/kg and 333 mg/kg
22,CNC(=O)Oc1cc(C(C)(C)C)cc(C(C)(C)C)c1,1800 mg/kg
23,CC(=O)Nc1cc(Cl)ccc1Cl,4100 mg/kg
24,C1COCCOCCOCCOCCO1,1410 mg/kg
